Patent US20070049593A1 (priority 2004, published 2007)
pIC50: −log10 of the molar value. Where a name gives a salt, the structure may show the parent alone.

Each compound was assayed against T1, HCV polymerase (Hepatitis C virus genotype 1b, UniProt P26663) (assay: biochemical).
T1 construct: a region encoding NS5B (J Virol 1991 March, 65(3), 1105-13, 544 amino acids after deletion of 47 amino acids on the C-terminal); 6xHis (C); made in house; host or cells: Escherichia coli
T1 sequence (P26663 2420-2963): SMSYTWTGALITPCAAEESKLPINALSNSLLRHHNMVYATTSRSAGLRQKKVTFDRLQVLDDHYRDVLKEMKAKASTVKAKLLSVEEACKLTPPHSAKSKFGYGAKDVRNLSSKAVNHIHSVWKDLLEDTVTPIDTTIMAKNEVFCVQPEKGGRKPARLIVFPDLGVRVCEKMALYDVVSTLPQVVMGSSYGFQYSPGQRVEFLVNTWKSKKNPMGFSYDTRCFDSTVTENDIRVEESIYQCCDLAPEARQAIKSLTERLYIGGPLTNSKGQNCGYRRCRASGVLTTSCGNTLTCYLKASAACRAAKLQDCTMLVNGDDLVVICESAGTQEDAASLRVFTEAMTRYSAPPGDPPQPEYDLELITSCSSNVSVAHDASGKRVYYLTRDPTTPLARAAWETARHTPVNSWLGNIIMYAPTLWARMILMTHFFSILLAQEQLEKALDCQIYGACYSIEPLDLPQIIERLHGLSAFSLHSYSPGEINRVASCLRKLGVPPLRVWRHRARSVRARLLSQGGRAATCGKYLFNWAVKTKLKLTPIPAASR
Set-up: species or system HCV BK strain
Procedure, shortened: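 His-tagged NS5B (BK strain, 47-aa C-terminal deletion, E. coli-expressed) at 0.5 μg/ml copied 5 μg/ml run-off RNA bearing the HCV 3′ UTR with 2 μM UTP plus [3H]UTP, 50 μM ATP/GTP, in pH 7.5 Tris with 5 mM MgCl2, 25 °C, 90 min. TCA-precipitated RNA was counted and IC50 calculated.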
Compound `CC(C)(COc1ccc(C(=O)O)cc1)NC(=O)c1ccc2c(C3CCCCC3)c3n(c2c1)CCOc1ccccc1-3` [Example 2-156, 4-{2-[(12-cyclohexyl-6,7-dihydro-5-oxa-7a-azadibenzo[a,e]azulene-9-carbonyl)amino]-2-methylpropoxy}benzoic acid] has a pIC50 greater than 7.00.
`CC(C)(COc1ccc(C#N)cc1)NC(=O)c1ccc2c(C3CCCCC3)c3n(c2c1)CCOc1ccccc1-3` [Example 2-157, N-[2-(4-cyanophenoxy)-1,1-dimethylethyl]-12-cyclohexyl-6,7-dihydro-5-oxa-7a-azadibenzo[a,e]azulene-9-carboxamide] gave a pIC50 of 6.00 to 7.00.
`CC(C)(CNc1ccc(C#N)cc1)NC(=O)c1ccc2c(C3CCCCC3)c3n(c2c1)CCOc1ccccc1-3` [Example 2-158, N-[2-(4-cyanophenylamino)-1,1-dimethylethyl]-12-cyclohexyl-6,7-dihydro-5-oxa-7a-azadibenzo[a,e]azulene-9-carboxamide] gave a pIC50 greater than 7.00.
`O=C(O)c1ccc2nc(C3(NC(=O)c4ccc5c(C6CCCCC6)c6n(c5c4)CCOc4ccccc4-6)CCC3)[nH]c2c1` [Example 2-160, 2-{1-[(12-cyclohexyl-6,7-dihydro-5-oxa-7a-azadibenzo[a,e]azulene-9-carbonyl)amino]cyclobutyl}-3H-benzimidazole-5-carboxylic acid] showed a pIC50 greater than 7.00.
With `CC(C)N(CCN1CCCCC1)c1cccc2c1OCCn1c-2c(C2CCCCC2)c2ccc(C(=O)O)cc21` [Example 2-161, 12-cyclohexyl-4-{N-isopropyl-N-[2-(piperidin-1-yl)ethyl]amino}-6,7-dihydro-5-oxa-7a-azadibenzo[a,e]azulene-9-carboxylic acid dihydrochloride] the pIC50 was greater than 7.00.
`CN(C)CCN(C)c1cccc2c1OCCn1c-2c(C2CCCCC2)c2ccc(C(=O)O)cc21` [Example 2-162, 12-cyclohexyl-4-[N-(2-dimethylaminoethyl)-N-methylamino]-6,7-dihydro-5-oxa-7a-azadibenzo[a,e]azulene-9-carboxylic acid dihydrochloride] gave a pIC50 greater than 7.00.
`COCC(C)(NC(=O)c1ccc2c(C3CCCCC3)c3n(c2c1)CCOc1ccccc1-3)C(=O)Nc1ccc(/C=C/C(=O)O)cc1` (centres unmarked) [Example 2-163, (E)-3-(4-{2-[(12-cyclohexyl-6,7-dihydro-5-oxa-7a-azadibenzo[a,e]azulene-9-carbonyl)amino]-3-methoxy-2-methylpropionylamino}phenyl)acrylic acid] showed a pIC50 greater than 7.00.
`O=C(NCCOCCO)c1ccc2c(C3CCCCC3)c3n(c2c1)CCOc1ccccc1-3` [Example 2-164, N-[2-(2-hydroxyethoxy)ethyl]-12-cyclohexyl-6,7-dihydro-5-oxa-7a-azadibenzo[a,e]azulene-9-carboxamide] was tested, and the pIC50 was 6.00 to 7.00.
`CC(C)(C)NC(=O)c1ccc2c(C3CCCCC3)c3n(c2c1)CCOc1ccccc1-3` [Example 2-165, N-tert-butyl-12-cyclohexyl-6,7-dihydro-5-oxa-7a-azadibenzo[a,e]azulene-9-carboxamide] was tested, and the pIC50 was 6.00 to 7.00.
Compound `O=C(N[C@H]1CC[C@H](O)CC1)c1ccc2c(C3CCCCC3)c3n(c2c1)CCOc1ccccc1-3` [Example 2-166, N-(trans-4-hydroxycyclohexyl)-12-cyclohexyl-6,7-dihydro-5-oxa-7a-azadibenzo[a,e]azulene-9-carboxamide] has a pIC50 greater than 7.00.
With `CC(C)(NC(=O)c1ccc2c(C3CCCCC3)c3n(c2c1)CCOc1ccccc1-3)c1nc(C(=O)O)cs1` [Example 2-167, 2-{1-[(12-cyclohexyl-6,7-dihydro-5-oxa-7a-azadibenzo[a,e]azulene-9-carbonyl)amino]-1-methylethyl}thiazole-4-carboxylic acid] the pIC50 was greater than 7.00.
For `CCN(CCN1CCCOCC1)c1cccc2c1OCCn1c-2c(C2CCCCC2)c2ccc(C(=O)O)cc21` [Example 2-168, 12-cyclohexyl-4-{N-ethyl-N-[2-(1,4-oxazepan-4-yl)ethyl]amino}-6,7-dihydro-5-oxa-7a-azadibenzo[a,e]azulene-9-carboxylic acid dihydrochloride], the pIC50 was greater than 7.00.
For `CCN(CCCN1CCCCC1)c1cccc2c1OCCn1c-2c(C2CCCCC2)c2ccc(C(=O)O)cc21` [Example 2-169, 12-cyclohexyl-4-{N-ethyl-N-[3-(piperidin-1-yl)propyl]amino}-6,7-dihydro-5-oxa-7a-azadibenzo[a,e]azulene-9-carboxylic acid dihydrochloride], the pIC50 was greater than 7.00.
In the case of `CCN(CCN1CCOCC1)c1cccc2c1OCCn1c-2c(C2CCCCC2)c2ccc(C(=O)O)cc21` [Example 2-170, 12-cyclohexyl-4-{N-ethyl-N-[2-(morpholin-4-yl)ethyl]amino}-6,7-dihydro-5-oxa-7a-azadibenzo[a,e]azulene-9-carboxylic acid dihydrochloride], the pIC50 was greater than 7.00.
For `CC(C)(NC(=O)c1ccc2c(C3CCCCC3)c3n(c2c1)CCOc1ccccc1-3)c1ccc(CO)cc1` [Example 2-171, N-[1-(4-hydroxymethylphenyl)-1-methylethyl]-12-cyclohexyl-6,7-dihydro-5-oxa-7a-azadibenzo[a,e]azulene-9-carboxamide], the pIC50 was greater than 7.00.
`CCOC(=O)c1csc(C(C)(C)NC(=O)c2ccc3c(C4CCCCC4)c4n(c3c2)CCOc2ccccc2-4)n1` [Example 2-172, ethyl 2-{1-[(12-cyclohexyl-6,7-dihydro-5-oxa-7a-azadibenzo[a,e]azulene-9-carbonyl)amino]-1-methylethyl}thiazole-4-carboxylate] showed a pIC50 greater than 7.00.
With `CNC(=O)c1ccc2c(C3CCCCC3)c3n(c2c1)CCOc1ccccc1-3` [Example 2-173, N-methyl-12-cyclohexyl-6,7-dihydro-5-oxa-7a-azadibenzo[a,e]azulene-9-carboxamide] the pIC50 was greater than 7.00.
In the case of `O=C(O)/C=C/c1ccc(NC(=O)C2(NC(=O)c3ccc4c(C5CCCCC5)c5n(c4c3)CCOc3ccccc3-5)CCNCC2)cc1` [Example 2-174, (E)-3-[4-({4-[(12-cyclohexyl-6,7-dihydro-5-oxa-7a-azadibenzo[a,e]azulene-9-carbonyl)amino]piperidine-4-carbonyl}amino)phenyl]acrylic acid], the pIC50 was greater than 7.00.
`COC(=O)[C@H](Cc1ccc(O)cc1)NC(=O)c1ccc2c(C3CCCCC3)c3n(c2c1)CCOc1ccccc1-3` [Example 2-175, methyl (S)-2-[(12-cyclohexyl-6,7-dihydro-5-oxa-7a-azadibenzo[a,e]azulene-9-carbonyl)amino]-3-(4-hydroxyphenyl)propionate] was tested, and the pIC50 was greater than 7.00.
Work on `CN(C)C(=O)CNc1cccc2c1OCCn1c-2c(C2CCCCC2)c2ccc(C(=O)O)cc21` [Example 2-176, 12-cyclohexyl-4-(dimethylcarbamoylmethylamino)-6,7-dihydro-5-oxa-7a-azadibenzo[a,e]azulene-9-carboxylic acid] yielded a pIC50 greater than 7.00.
`CC(C)(NC(=O)c1ccc2c(C3CCCCC3)c3n(c2c1)CCOc1ccccc1-3)C(=O)N[C@H]1CC[C@H](O)CC1` [Example 2-177, N-[1-(trans-4-hydroxycyclohexylcarbamoyl)-1-methylethyl]-12-cyclohexyl-6,7-dihydro-5-oxa-7a-azadibenzo[a,e]azulene-9-carboxamide] gave a pIC50 greater than 7.00.
`CCN(C(=O)CN1CCCCC1)c1cccc2c1OCCn1c-2c(C2CCCCC2)c2ccc(C(=O)O)cc21` [Example 2-178, 12-cyclohexyl-4-{N-ethyl-N-[2-(piperidin-1-yl)acetyl]amino}-6,7-dihydro-5-oxa-7a-azadibenzo[a,e]azulene-9-carboxylic acid monohydrochloride] gave a pIC50 greater than 7.00.
Work on `O=C(Nc1ccc(OCc2ccccc2)cc1)c1ccc2c(C3CCCCC3)c3n(c2c1)CCOc1ccccc1-3` [Example 2-179, N-(4-benzyloxyphenyl)-12-cyclohexyl-6,7-dihydro-5-oxa-7a-azadibenzo[a,e]azulene-9-carboxamide] yielded a pIC50 of 6.00 to 7.00.
In the case of `O=C(N[C@@H](Cc1ccc(O)cc1)C(=O)O)c1ccc2c(C3CCCCC3)c3n(c2c1)CCOc1ccccc1-3` [Example 2-180, (S)-2-[(12-cyclohexyl-6,7-dihydro-5-oxa-7a-azadibenzo[a,e]azulene-9-carbonyl)amino]-3-(4-hydroxyphenyl)propionic acid], the pIC50 was greater than 7.00.
In the case of `CC(=O)N1CCC(NC(=O)c2ccc3c(C4CCCCC4)c4n(c3c2)CCOc2ccccc2-4)(C(=O)O)CC1` [Example 2-181, 1-acetyl-4-[(12-cyclohexyl-6,7-dihydro-5-oxa-7a-azadibenzo[a,e]azulene-9-carbonyl)amino]piperidine-4-carboxylic acid], the pIC50 was greater than 7.00.
For `CN1CCC(NC(=O)c2ccc3c(C4CCCCC4)c4n(c3c2)CCOc2ccccc2-4)(C(=O)O)CC1` [Example 2-182, 4-[(12-cyclohexyl-6,7-dihydro-5-oxa-7a-azadibenzo[a,e]azulene-9-carbonyl)amino]-1-methylpiperidine-4-carboxylic acid], the pIC50 was greater than 7.00.
With `CC(C)(CNc1ccc(C(=O)O)cc1)NC(=O)c1ccc2c(C3CCCCC3)c3n(c2c1)CCOc1ccccc1-3` [Example 2-183, 4-{2-[(12-cyclohexyl-6,7-dihydro-5-oxa-7a-azadibenzo[a,e]azulene-9-carbonyl)amino]-2-methylpropylamino}benzoic acid] the pIC50 was greater than 7.00.
`CC(C)(CNc1ccc(C(N)=O)cc1)NC(=O)c1ccc2c(C3CCCCC3)c3n(c2c1)CCOc1ccccc1-3` [Example 2-184, N-[2-(4-carbamoylphenylamino)-1,1-dimethylethyl]-12-cyclohexyl-6,7-dihydro-5-oxa-7a-azadibenzo[a,e]azulene-9-carboxamide] gave a pIC50 greater than 7.00.
Compound `CC(C)(CNC(=O)OC(C)(C)C)NC(=O)c1ccc2c(C3CCCCC3)c3n(c2c1)CCOc1ccccc1-3` [Example 2-185, tert-butyl {2-[(12-cyclohexyl-6,7-dihydro-5-oxa-7a-azadibenzo[a,e]azulene-9-carbonyl)amino]-2-methylpropyl}carbamate] has a pIC50 of 6.00 to 7.00.
